Measured values reported in patent US20020155519A1 (priority 1997, published 2002).
Entries after “also recorded” stand apart in the source; their conditions may differ. Read-outs that look alike come from different tables or passages of the source.

How the values were obtained:
[1] = tested on: human blood bacterium (HBB); type: cell-based
[2] = tested on: human blood bacterium (HBB); type: cell-based; remark: listed apart in the source
Procedure: Normally 1 ml of serum was added to 9 ml of medium. Larger flasks with a proportionately larger amount of serum and medium are used to produce bacteria in quantity. Modulators might be added to some flasks in 10× or higher concentration (corresponding to addition of 1 ml or less). When examining the effect of modulators, control flasks were prepared similarly without the addition of the modulator. Levels were observed microscopically (inverted phase microscope, observing the number of organisms per field crudely or by actual count) after incubation, typically at several points in time.
When multiple comparisons were done at once, they were done in 12 well or 24 well cell culture plates, most often the latter. With the latter, typically 1 ml of medium inoculated with serum is added to each well, with modulators added at 10× or higher concentration (0.1 ml or less). When comparisons are done in well plates, control wells without any additions are included. Levels were observed microscopically (inverted phase microscope) after incubation, typically at several points in time. The well plate cultures were also used for antibiotic sensitivity testing.
These procedures are those known in the art and include uses of antibodies and DNA probes, Western and Southern blots, PCR and the diagnostic kits therefor. First, organisms can be quantified by culture. […] If a means is found to immobilize the bacteria to grow isolated colonies, counts will be more accurate. Quantification is used to follow the progress of treatment and to correlate HBB levels with specific disease syndromes. Quantification is used also for antibiotic sensitivity measurements, comparing the level of growth with antibiotic treatment to the level of growth without treatment. Such antibiotic sensitivity measurements establish the basis for the clinical choice of antibiotic drugs.

[3] = addition of cell wall precursors
[4] = added to ½ strength medium O or RPMI

## OCCS [2-mercaptoethanol]
[1]
  effect on HBB growth in culture: no significant effect
[1]; 10 μg/ml
  effect on HBB growth in culture: Little or no stimulation or inhibition

## Nc1ccc(O)c(C(=O)O)c1 [5-aminosalicylic acid]
[2]; 20 μg/ml
  observed antibiotic and antifungal sensitivities (outcome, number of isolates): no effect (4 isolates)

## C[N+](C)(C)C[C@H](O)CC(=O)[O-] [L-carnitine]
[1]; 2 μg/ml
  effect on HBB growth in culture: Little or no stimulation or inhibition

## CC(=O)N[C@@H](CS)C(=O)O [N-acetyl cysteine]
[1]
  effect on HBB growth in culture: Little or no stimulation or inhibition; also recorded: no significant effect

## CC(=O)N[C@H]1C(O)O[C@H](CO)[C@@H](O)[C@@H]1O (some centres unmarked) [N-acetylglucosamine]
[1]; [3]
  effect on reduction of cell wall-defective forms: no effect

## CC(=O)N[C@H]1C(O)O[C@H](CO)[C@@H](O[C@@H]2O[C@H](CO)[C@H](O)[C@H](O)[C@H]2O)[C@@H]1O (some centres unmarked) [N-acetyllactoasamine]
[1]; [3]
  effect on reduction of cell wall-defective forms: no effect
[1]; concentration not printed
  effect on HBB growth in culture: some stimulation of culture growth

## CC(=O)N[C@H]1C(O)O[C@H](CO)[C@@H](O)[C@@H]1O[C@H](C)C(=O)O (some centres unmarked) [N-acetylmuramic acid]
[1]; [3]
  effect on reduction of cell wall-defective forms: no effect

## NC12CC3CC(CC(C3)C1)C2 [amantadine, reference compound]
[1]
  effect on HBB growth in culture: Little or no stimulation or inhibition

## NCC[C@H](O)C(=O)N[C@@H]1C[C@H](N)[C@@H](O[C@H]2O[C@H](CN)[C@@H](O)[C@H](O)[C@H]2O)[C@H](O)[C@H]1O[C@H]1O[C@H](CO)[C@@H](O)[C@H](N)[C@H]1O [amikacin]
[2]; 2 μg/ml
  observed antibiotic and antifungal sensitivities (outcome, number of isolates): no effect (1 isolate)

## N.N.O=S(=O)(O)O [ammonium sulfate]
[1]
  effect on HBB growth in culture: Little or no stimulation or inhibition; also recorded: no effect

## CC1(C)S[C@@H]2[C@H](NC(=O)[C@H](N)c3ccc(O)cc3)C(=O)N2[C@H]1C(=O)O [amoxicillin]
[2]
  antibiotic sensitivity of HBB strains/isolates in culture: less sensitivity

## [N-]=[N+]=[N-] [azide, reference compound]
[1]
  effect on HBB growth in culture: little effect on growth

## CC[C@H]1OC(=O)[C@H](C)[C@@H](O[C@H]2C[C@@](C)(OC)[C@@H](O)[C@H](C)O2)[C@H](C)[C@@H](O[C@@H]2O[C@H](C)C[C@H](N(C)C)[C@H]2O)[C@](C)(O)C[C@@H](C)CN(C)[C@H](C)[C@@H](O)[C@]1(C)O [azothromycin]
[2]
  antibiotic sensitivity of HBB strains/isolates in culture: some strains show sensitivity; also recorded: often stimulate growth
  observed antibiotic and antifungal sensitivities (outcome, number of isolates): no effect (6 isolates); also recorded: sensitive (7 isolates)

## O=C(c1ccccc1)c1ccccc1 [benzophenone]
[1]; 1/14 saturated
  effect on HBB growth in culture: slight stimulation

## O=BOB(O)OB(O)OB=O [borax]
[1]; 14 μg/ml
  effect on HBB growth in culture: Little or no stimulation or inhibition

## CC1=C(C(=O)O)N2C(=O)[C@@H](NC(=O)[C@H](N)c3ccc(O)cc3)[C@H]2SC1 [cefadroxil]
[2]
  observed antibiotic and antifungal sensitivities (outcome, number of isolates): no effect (1 isolate)

## CC1=C(C(=O)O)N2C(=O)[C@@H](NC(=O)[C@H](N)c3ccccc3)[C@H]2SC1 [cephalexin]
[2]
  observed antibiotic and antifungal sensitivities (outcome, number of isolates): no effect (1 isolate)

## CCN(CC)CCCC(C)Nc1ccnc2cc(Cl)ccc12 (centres unmarked) [chloroquin]
[2]; concentration not printed
  antibiotic sensitivity of HBB strains/isolates in culture: synergistic effect with a few isolates

## [Cr] [chromium]
[1]; concentration not printed
  effect on HBB growth in culture: no inhibition of bacterial growth

## O=C(O)c1cn(C2CC2)c2cc(N3CCNCC3)c(F)cc2c1=O [ciprofloxacin]
[2]
  antibiotic sensitivity of HBB strains/isolates in culture: Some strains are sensitive
  observed antibiotic and antifungal sensitivities (outcome, number of isolates): no effect (5 isolates); also recorded: partially sensitive (1 isolate)

## [Cu] [copper]
[1]; concentration not printed
  effect on HBB growth in culture: stimulated

## N[C@@H](CS)C(=O)O [cysteine]
[1]; 20 μg/ml
  effect on HBB growth in culture: Little or no stimulation or inhibition
[1]; 20 μg/ml, listed as Cysteine
  effect on HBB growth in culture: appears to inhibit growth in some isolates
[1]; concentration not printed
  effect on HBB growth in culture: suppresses growth of some strains; also recorded: stimulates other strains

## N[C@H](CCC[C@H](N)C(=O)O)C(=O)O [diaminopimelic acid]
[1]; [3]
  effect on reduction of cell wall-defective forms: no effect

## c1ccc(Nc2ccccc2)cc1 [diphenylamine]
[1]; 1/14 saturated
  effect on HBB growth in culture: slight stimulation

## O[C@@H](CS)[C@@H](O)CS [dithiotheitol]
[1]; 10 μg/ml
  effect on HBB growth in culture: Little or no stimulation or inhibition
[1]; concentration not printed
  effect on HBB growth in culture: no significant effect

## CCO [ethanol]
[1]
  effect on HBB growth in culture: Some stimulation of growth

## O=C(CO)[C@@H](O)[C@H](O)[C@H](O)CO [fructose]
[1]; concentration not printed
  effect on HBB growth in culture: support growth

## OO [hydrogen peroxide]
[1]
  effect on HBB growth in culture: might also be stimulated

## [Fe] [iron]
[1]
  effect on HBB growth in culture: stimulated

## CC(C)CCO [isoamyl alcohol]
[1]
  effect on HBB growth in culture: Some stimulation of growth

## OC[C@H]1O[C@@H](O[C@H]2[C@H](O)[C@@H](O)C(O)O[C@@H]2CO)[C@H](O)[C@@H](O)[C@H]1O (some centres unmarked) [lactose]
[1]; concentration not printed
  effect on HBB growth in culture: support growth

## [Mg+2] [magnesium]
[1]; concentration not printed
  effect on HBB growth in culture: little effect on the growth

## [Mn+2] [manganese]
[1]
  effect on HBB growth in culture: stimulated
  optimum concentration for stimulation of HBB growth: 1 µg/mL

## OC[C@H]1O[C@H](OCC2O[C@@H](O)[C@H](O)[C@@H](O)[C@@H]2O)[C@H](O)[C@@H](O)[C@H]1O (some centres unmarked) [meilibose]
[1]; concentration not printed
  effect on HBB growth in culture: support growth

## CO [methanol]
[1]
  effect on HBB growth in culture: minimal or no stimulation of growth

## CSCC[C@H](N)C(=O)O [methionine]
[1]
  effect on HBB growth in culture: appears to do so less consistently

## CN(Cc1cnc2nc(N)nc(N)c2n1)c1ccc(C(=O)N[C@@H](CCC(=O)O)C(=O)O)cc1 [methotrexate, reference compound]
[1]; concentration not printed
  effect on HBB growth in culture: no inhibition

## COC(C)=O [methyl acetate]
[1]; [4]
  effect on HBB growth in culture: minimal or no stimulation of growth

## CN(C)c1ccc2nc3ccc(=[N+](C)C)cc-3sc2c1 [methylene blue]
[1]
  effect on HBB growth in culture: Little or no stimulation or inhibition

## C1COCCN1 [morpholine]
[1]
  effect on HBB growth in culture: slight stimulation

## C[C@@H](O[C@H]1[C@H](O)[C@@H](CO)OC(O)[C@@H]1N)C(=O)O (some centres unmarked) [muramic acid]
[1]
  effect on reduction of cell wall-defective forms: no effect

## CCCCO [n-butanol]
[1]
  effect on HBB growth in culture: Some stimulation of growth

## O=C(O)c1cc(=O)[nH]c(=O)[nH]1 [orotic acid]
[1]; 4 μg/ml
  effect on HBB growth in culture: Little or no stimulation or inhibition

## NCCOP(=O)(O)O [phosphorylethanolamine]
[1]; 3 μg/ml
  effect on HBB growth in culture: Little or no stimulation or inhibition

## O=C(O)c1ccccn1 [picolinic acid]
[1]; concentration not printed
  effect on HBB growth in culture: Little or no stimulation or inhibition

## [I-].[K+] [potassium iodide]
[1]; concentration not printed
  effect on HBB growth in culture: Little or no stimulation or inhibition

## OC[C@H]1O[C@H](OC[C@H]2O[C@H](O[C@]3(CO)O[C@H](CO)[C@@H](O)[C@@H]3O)[C@H](O)[C@@H](O)[C@@H]2O)[C@H](O)[C@@H](O)[C@H]1O [raffinose]
[1]; concentration not printed
  effect on HBB growth in culture: support growth

## O=c1ccc2[n+]([O-])c3ccc(O)cc3oc-2c1 [resazurin]
[1]; 14 μg/ml
  effect on HBB growth in culture: Little or no stimulation or inhibition

## [Ag] [silver]
[1]; concentration not printed
  effect on HBB growth in culture: stimulated

## NCCCNCCCCNCCCN [spermine]
[1]
  effect on HBB growth in culture: Little or no stimulation or inhibition

## OC[C@H]1O[C@@](CO)(O[C@H]2O[C@H](CO)[C@@H](O)[C@H](O)[C@H]2O)[C@@H](O)[C@@H]1O [sucrose]
[1]; concentration not printed
  effect on HBB growth in culture: support growth

## NCCS(=O)(=O)O [taurine]
[1]; 20 μg/ml
  effect on HBB growth in culture: Little or no stimulation or inhibition
[1]; concentration not printed
  effect on HBB growth in culture: no effect on cultures

## CCN(CC)CN(CC)CC [tetraethylmethylenediamine]
[1]; 14 μg/ml
  effect on HBB growth in culture: slight stimulation

## [Sn] [tin]
[1]; concentration not printed
  effect on HBB growth in culture: stimulated

## COP(=O)(OC)OC [trimethyl phosphate]
[1]; [4]
  effect on HBB growth in culture: minimal or no stimulation of growth

## CN(C)C [trimethylamine]
[1]; [4]
  effect on HBB growth in culture: minimal or no stimulation of growth

## COC1=C(OC)C(=O)C(C/C=C(\C)CC/C=C(\C)CC/C=C(\C)CC/C=C(\C)CC/C=C(\C)CC/C=C(\C)CC/C=C(\C)CC/C=C(\C)CC/C=C(\C)CCC=C(C)C)=C(C)C1=O [ubiquinone (Q10)]
[1]; ⅕ saturated
  effect on HBB growth in culture: slight stimulation

## [Zn] [zinc]
[1]; concentration not printed
  effect on HBB growth in culture: suppresses the growth; also recorded: inhibited

## (oxidized) arachidonate
[1]
  effect on HBB growth in culture: might also be stimulated

## chromium picolinate
[1]; concentration not printed
  effect on HBB growth in culture: Little or no stimulation or inhibition

## dextran
[1]; concentration not printed
  effect on HBB growth in culture: support growth

## dichlorophenylenediamine
[1]; 1/14 saturated
  effect on HBB growth in culture: Little or no stimulation or inhibition

## mercury
[1]
  effect on HBB growth in culture: possibly; also recorded: stimulated

## silver proteinate
[1]; concentration not printed
  effect on HBB growth in culture: Little or no stimulation or inhibition

## titanium ethoxide
[1]
  effect on HBB growth in culture: slight stimulation
